Source: PMC10451623 (Antioxidants, 2023)

Assays:
PPARα-LBD = biological target: T1, PPARα-LBD (Homo sapiens, UniProt Q07869); test: TR-FRET PGC1α coactivator recruitment assay; format: biochemical; parameters: Human PPARα-LBD (amino acids 200–468); made in house; host or cells: Rosetta (DE3) pLysS (E. coli); conditions: PGC1α peptide, read-out: EC50, PGC1α recruitment to PPARα-LBD
T1 sequence (Q07869 200-468): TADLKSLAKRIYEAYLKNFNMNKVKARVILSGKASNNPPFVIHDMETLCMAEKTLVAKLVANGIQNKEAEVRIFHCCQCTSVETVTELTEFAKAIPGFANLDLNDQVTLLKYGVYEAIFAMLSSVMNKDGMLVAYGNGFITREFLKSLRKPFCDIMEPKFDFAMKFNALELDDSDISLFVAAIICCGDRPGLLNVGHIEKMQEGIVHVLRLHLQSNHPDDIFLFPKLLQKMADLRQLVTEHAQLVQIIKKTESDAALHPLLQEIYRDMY
Procedure: Subsequently, 5 µL of 4 nM Eu-W1024-labeled anti-6×His antibody/80 nM ULight-Streptavidin (PerkinElmer) was added to each well, and the microplate was incubated in the dark for 2 h, at room temperature. […] The nonlinear fitting and the calculation of the EC50 were performed using the Prism 9 software (GraphPad, San Diego, CA, USA).
The ligand-bound activated forms of PPARs are stabilized by associations with specific coactivators, thereby enabling the regulation of specific gene expression.
Figure 2 TR-FRET-based LBD-mediated human PPARα/δ/γ coactivator recruitment assay. […] Data are presented as the mean ± SE of three or four independent experiments with duplicate samples, and the calculated EC50 values are shown.

human PPARα = biological target: T2, human PPARα (Homo sapiens, UniProt Q07869); test: Transactivation assay (GAL4–hPPARα-LBD chimera, luciferase reporter, COS-7 cells); format: cell-based; conditions: for Emax: 100% = 1 µM GW7647, read-out: Efficacy, PPARα transactivation (% of the maximal response); for EC50: GAL4–hPPARα-LBD
T2 construct: expressed in transfected cells; host or cells: COS-7
T2 sequence (Q07869 239-466 limits assumed): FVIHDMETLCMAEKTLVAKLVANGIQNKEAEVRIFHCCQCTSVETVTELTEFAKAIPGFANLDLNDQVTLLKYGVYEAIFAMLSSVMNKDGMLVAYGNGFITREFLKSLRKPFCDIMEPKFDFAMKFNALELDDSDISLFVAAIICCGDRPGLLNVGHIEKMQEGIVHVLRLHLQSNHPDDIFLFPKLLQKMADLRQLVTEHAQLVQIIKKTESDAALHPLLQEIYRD
Procedure: The pSG5-GAL–hPPARα/δ/γ plasmids express fusion proteins comprising the yeast transcription factor GAL4 DNA-binding domain and each of the human PPARα/δ/γ-LBDs. The MH100(UAS)×4-tk-Luc plasmid contains four copies of the MH100 GAL4 binding site and the Firefly luciferase gene. The cells were transfected with those plasmids and were treated with various PPAR ligands, and both Firefly and Renilla luciferase activities were measured using the Dual-Glo Luciferase Assay System (Promega, Madison, WI, USA) as described previously. […] GW1929 was purchased from Sigma-Aldrich (St. Louis, MO, USA).
For the undertaking of the comparison of the potency, efficacy, and selectivity of the five PPAR ligands (Figure 1A) against the PPAR subtypes, we evaluated their PPARα/δ/γ activation using three different methods: a cell-based transactivation assay, a coactivator recruitment assay, and a thermal stability assay, as we previously performed on three fibrates (namely, bezafibrate, fenofibric acid, and pemafibrate). The cell-based transactivation assay utilizing the Gal4–PPAR-LBD system is the most widely used method for the determination of PPAR activation by certain ligands, although their responses depend on the used cell types in which several coactivators with altered functions are differentially expressed.
Figure 1 LBD-mediated human PPARα/δ/γ transactivation by PPAR ligands. (A) Chemical structures of the five PPAR ligands used in this study. […] Data are presented as the mean ± standard error (SE) of three independent experiments with duplicate samples.

PPARδ-LBD = biological target: T3, PPARδ-LBD (Homo sapiens, UniProt Q03181); test: Thermal stability assay using circular dichroism spectroscopy; format: binding; parameters: PPARδ-LBD (amino acids 170–441); His tag (pET28a) (N); made in house; host or cells: Rosetta (DE3) pLysS (E. coli); conditions: CD at 222 nm; 10 µM LBD; GW501516 at 50 µM
T3 sequence (Q03181 170-441): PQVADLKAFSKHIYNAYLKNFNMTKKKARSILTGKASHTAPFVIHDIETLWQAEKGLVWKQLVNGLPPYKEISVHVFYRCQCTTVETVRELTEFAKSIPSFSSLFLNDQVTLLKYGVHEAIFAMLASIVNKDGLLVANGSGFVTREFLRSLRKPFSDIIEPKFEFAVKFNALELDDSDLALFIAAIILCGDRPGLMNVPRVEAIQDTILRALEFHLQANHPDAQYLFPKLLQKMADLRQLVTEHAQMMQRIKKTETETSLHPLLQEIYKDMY
Procedure: PPARα/δ/γ-LBD proteins (10 µM) were incubated with different concentrations of ligands in buffer C consisting of 20 mM Tris-HCl (pH 8.0), 150 mM NaCl, 1 mM Tris 2-carboxyethylphosphine (TCEP)-HCl, and 10% glycerol. The circular dichroism (CD) spectra were monitored within a 200–260 nm range at increasing temperatures from 30 °C to 70 °C (2 °C/min) using a J-1500 spectropolarimeter equipped with a PTC-510 thermal controller (JASCO, Tokyo, Japan). […] The ligand-induced increases in the Tm values were defined as ∆Tm.
Nuclear receptors, including PPARs, display an increased thermal stability upon ligand binding, which is detectable through CD spectroscopy.
Figure 3 Circular dichroism-based PPARα/δ/γ-LBD thermal stability assay. […] Data are presented as the mean ± SE of three or four (in parentheses) independent experiments. Differences vs. basal levels (with 0.1% DMSO) were statistically assessed by one-way ANOVA, followed by a Dunnett’s post hoc test: * p < 0.05, ** p < 0.01, and *** p < 0.001.

## CSc1ccc(C(=O)/C=C/c2cc(C)c(OC(C)(C)C(=O)O)c(C)c2)cc1 [elafibranor]
PPARα-LBD
  EC50: 6.93 µM
Human PPARα
  Emax: 38.5%
  EC50: 0.388 µM
PPARδ-LBD
  Effect on Tm of PPARδ-LBD (in words): did not significantly alter the Tm values

## O=C(O)CCCc1cc2cc(Cl)ccc2n1S(=O)(=O)c1ccc2ncsc2c1 [lanifibranor]
PPARα-LBD
  EC50: 10 µM
Human PPARα
  Emax: 13.3%
  EC50: 4.66 µM
PPARδ-LBD
  Effect on Tm of PPARδ-LBD (in words): increased the Tm values

## CCO[C@@H](Cc1ccc(OCCn2c(C)ccc2-c2ccc(SC)cc2)cc1)C(=O)O [saroglitazar]
PPARα-LBD
  EC50: 4.11 µM
Human PPARα
  Emax: 56.4%
  EC50: 0.19 µM
PPARδ-LBD
  Effect on Tm of PPARδ-LBD (in words): highly increased the Tm values

## CCO[C@H](COc1ccc(C(F)(F)F)cc1)CSc1ccc(OCC(=O)O)c(C)c1 [seladelpar]
PPARα-LBD
  EC50: 3.84 µM
Human PPARα
  Emax: 41%
  EC50: 1.64 µM
PPARδ-LBD
  Effect on Tm of PPARδ-LBD (in words): increased the Tm values
